Laboratory results from patent US10800792B2, “Inhibitors of Bruton's tyrosine kinase and method of their use” (JANSSEN PHARMACEUTICA NV, priority 2015, dated 2020).

Molecular target: unphosphorylated-BTK kinase domain (UP-BTK), GST-tagged human BTK (389-659aa) (Homo sapiens (Human), UniProt Q06187)
Assay: BTK kinase Lanthascreen binding assay
Conditions: Lanthascreen tracer competition, 60 minutes incubation, pIC50 = negative log of the IC50 in molar; for IC50: read-out: BTK_I_binding pIC50 (converted)
In short: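 Compound binding to the unphosphorylated kinase domain was monitored by displacement of a fluorescently labelled tracer in a Lanthascreen format. Potency is given as pIC50, the negative log of the molar IC50.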

Chain of unphosphorylated-BTK kinase domain (UP-BTK), GST-tagged human BTK (389-659aa) (Q06187 389-659): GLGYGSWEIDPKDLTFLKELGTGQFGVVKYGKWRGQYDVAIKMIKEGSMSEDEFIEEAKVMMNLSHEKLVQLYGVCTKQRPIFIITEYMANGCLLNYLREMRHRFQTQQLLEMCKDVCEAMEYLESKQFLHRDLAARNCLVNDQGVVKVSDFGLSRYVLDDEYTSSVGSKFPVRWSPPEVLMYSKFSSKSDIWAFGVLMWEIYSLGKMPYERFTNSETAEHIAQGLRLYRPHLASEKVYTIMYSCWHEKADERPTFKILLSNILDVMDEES

Row | SMILES | IC50 | BTK_I_binding pIC50
1 | Cc1nc(Oc2ccccc2)ccc1N1C(=O)Nc2c(C(=O)N[C@@H]3CCCN(C(=O)OC(C)(C)C)C3)sc3nccc1c23 [Example 743, (R)-tert-Butyl 3-(5-(2-methyl-6-phenoxypyridin-3-yl)-4-oxo-4,5-dihydro-3H-1-thia-3,5,8-triazaacenaphthylene-2-carboxamido)piperidine-1-carboxylate] | 1580 nM | –
2 | O=C(N[C@@H]1CCCNC1)c1sc2nccc3c2c1NC(=O)N3c1ccc(OC2CCC2)nc1 [Example 744, (R)-5-(6-Cyclobutoxypyridin-3-yl)-4-oxo-N-(piperidin-3-yl)-4,5-dihydro-3H-1-thia-3,5,8-triazaacenaphthylene-2-carboxamide] | – | 5.7
3 | C=CC(=O)N1CC[C@@H](NC(=O)c2sc3nccc4c3c2NC(=O)N4c2cnc(Oc3ccccc3)nc2)C1 [Example 748, (R)—N-(1-Acryloylpyrrolidin-3-yl)-4-oxo-5-(2-phenoxypyrimidin-5-yl)-4,5-dihydro-3H-1-thia-3,5,8-triazaacenaphthylene-2-carboxamide] | – | 6.8
4 | C=CC(=O)N1CC[C@@H](NC(=O)c2sc3nccc4c3c2NC(=O)N4c2ncc(Oc3ccccc3)cn2)C1 [Example 749, (R)—N-(1-Acryloylpyrrolidin-3-yl)-4-oxo-5-(5-phenoxypyrimidin-2-yl)-4,5-dihydro-3H-1-thia-3,5,8-triazaacenaphthylene-2-carboxamide] | – | 7.3
5 | C=CC(=O)N1CCC[C@@H](NC(=O)c2sc3nccc4c3c2NC(=O)N4c2ccc(CC(C)C)cc2)C1 [Example 750, (R)—N-(1-Acryloylpiperidin-3-yl)-5-(4-isobutylphenyl)-4-oxo-4,5-dihydro-3H-1-thia-3,5,8-triazaacenaphthylene-2-carboxamide] | – | 6.6
6 | C=CC(=O)N1CCC[C@@H](NC(=O)c2sc3nccc4c3c2NC(=O)N4c2cc(-c3ccccc3)cnn2)C1 [Example 751, (R)—N-(1-Acryloylpiperidin-3-yl)-4-oxo-5-(5-phenylpyridazin-3-yl)-4,5-dihydro-3H-1-thia-3,5,8-triazaacenaphthylene-2-carboxamide] | – | 6.7
7 | CC(C)Cc1ccc(N2C(=O)Nc3c(C(=O)N[C@@H]4CCCNC4)sc4nccc2c34)cc1 [Example 754, (R)-5-(4-Isobutylphenyl)-4-oxo-N-(piperidin-3-yl)-4,5-dihydro-3H-1-thia-3,5,8-triazaacenaphthylene-2-carboxamide] | – | <6
8 | O=C(N[C@@H]1CCCNC1)c1sc2nccc3c2c1NC(=O)N3c1cc(-c2ccccc2)cnn1 [Example 755, (R)-4-Oxo-5-(5-phenylpyridazin-3-yl)-N-(piperidin-3-yl)-4,5-dihydro-3H-1-thia-3,5,8-triazaacenaphthylene-2-carboxamide] | – | <6
9 | C=CC(=O)N1CCC[C@@H](NC(=O)c2sc3nccc4c3c2NC(=O)N4c2ccc(CC(C)C)nc2C)C1 [Example 764, (R)—N-(1-Acryloylpiperidin-3-yl)-5-(6-isobutyl-2-methylpyridin-3-yl)-4-oxo-4,5-dihydro-3H-1-thia-3,5,8-triazaacenaphthylene-2-carboxamide] | – | 6.3
10 | C=CC(=O)N1CCC[C@@H](NC(=O)c2sc3nccc4c3c2NC(=O)N4c2ccc(OC3CCOCC3)nc2C)C1 [Example 770, (R)—N-(1-Acryloylpiperidin-3-yl)-5-(2-methyl-6-((tetrahydro-2H-pyran-4-yl)oxy)pyridin-3-yl)-4-oxo-4,5-dihydro-3H-1-thia-3,5,8-triazaacenaphthylene-2-carboxamide] | – | <6
11 | C=CC(=O)N1CCC[C@@H](NC(=O)c2sc3nccc4c3c2NC(=O)N4c2ccc(Oc3cccnc3C)cc2)C1 [Example 771, (R)—N-(1-Acryloylpiperidin-3-yl)-5-(4-((2-methylpyridin-3-yl)oxy)phenyl)-4-oxo-4,5-dihydro-3H-1-thia-3,5,8-triazaacenaphthylene-2-carboxamide] | – | 7.4
12 | C=CC(=O)N1CCC[C@@H](NC(=O)c2sc3nccc4c3c2NC(=O)N4c2ccc(Oc3cccc(C)n3)cc2C)C1 [Example 772, (R)—N-(1-Acryloylpiperidin-3-yl)-5-(2-methyl-4-((6-methylpyridin-2-yl)oxy)phenyl)-4-oxo-4,5-dihydro-3H-1-thia-3,5,8-triazaacenaphthylene-2-carboxamide] | – | 7.7
13 | C=CC(=O)N1CCC[C@@H](NC(=O)c2sc3nccc4c3c2NC(=O)N4c2ccc(Oc3cccnc3C)cc2C)C1 [Example 773, (R)—N-(1-Acryloylpiperidin-3-yl)-5-(2-methyl-4-((2-methylpyridin-3-yl)oxy)phenyl)-4-oxo-4,5-dihydro-3H-1-thia-3,5,8-triazaacenaphthylene-2-carboxamide] | – | 7.4
14 | C=CC(=O)N1CCC[C@@H](NC(=O)c2sc3nccc4c3c2NC(=O)N4c2ccc(Oc3cccnc3)cc2)C1 [Example 774, (R)—N-(1-Acryloylpiperidin-3-yl)-4-oxo-5-(4-(pyridin-3-yloxy)phenyl)-4,5-dihydro-3H-1-thia-3,5,8-triazaacenaphthylene-2-carboxamide] | – | 7.9
15 | C=CC(=O)N1CCC[C@@H](NC(=O)c2sc3nccc4c3c2NC(=O)N4c2ccc(Oc3cccc(C)n3)cc2)C1 [Example 775, (R)—N-(1-Acryloylpiperidin-3-yl)-5-(4-((6-methylpyridin-2-yl)oxy)phenyl)-4-oxo-4,5-dihydro-3H-1-thia-3,5,8-triazaacenaphthylene-2-carboxamide] | – | 7.5
16 | C=CC(=O)N1CCC[C@@H](NC(=O)c2sc3nccc4c3c2NC(=O)N4c2ccc(Oc3ccccc3F)cn2)C1 [Example 777, (R)—N-(1-Acryloylpiperidin-3-yl)-5-(5-(2-fluorophenoxy)pyridin-2-yl)-4-oxo-4,5-dihydro-3H-1-thia-3,5,8-triazaacenaphthylene-2-carboxamide] | – | 8.3

The next lines start with the values.

Row | IC50 | BTK_I_binding pIC50 | SMILES
17 | – | 8.0 | C=CC(=O)N1CCC[C@@H](NC(=O)c2sc3nccc4c3c2NC(=O)N4c2ccc(Oc3ccccn3)cc2C)C1 [Example 778, (R)—N-(1-Acryloylpiperidin-3-yl)-5-(2-methyl-4-(pyridin-2-yloxy)phenyl)-4-oxo-4,5-dihydro-3H-1-thia-3,5,8-triazaacenaphthylene-2-carboxamide]
18 | – | 6.3 | O=C(CCCC(=O)NCCCOCCOCCOCCCNC(=O)CCCC[C@H]1SC[C@H]2NC(=O)N[C@H]21)NC/C=C/C(=O)N1CCCC(NC(=O)c2sc3nccc4c3c2NC(=O)N4c2ccc(Oc3ccccc3)cn2)C1 (stereo partly drawn) [Example 780, N^1-(15-Oxo-19-((3aR,4R,6aS)-2-oxohexahydro-1H-thieno[3,4-d]imidazol-4-yl)-4,7,10-trioxa-14-azanonadecyl)-N^5-((E)-4-oxo-4-(3-(4-oxo-5-(5-phenoxypyridin-2-yl)-4,5-dihydro-3H-1-thia-3,5,8-triazaacenaphthylene-2-carboxamido)piperidin-1-yl)but-2-en-1-yl)glutaramide]
19 | – | 7.4 | C=CC(=O)N1CC[C@@H](NC(=O)c2sc3nccc4c3c2NC(=O)N4c2ccc(Oc3ccccn3)cc2C)C1 [Example 781, (R)—N-(1-Acryloylpyrrolidin-3-yl)-5-(2-methyl-4-(pyridin-2-yloxy)phenyl)-4-oxo-4,5-dihydro-3H-1-thia-3,5,8-triazaacenaphthylene-2-carboxamide]
20 | – | 7.1 | C=CC(=O)N1CCC[C@@H](NC(=O)c2sc3nccc4c3c2NC(=O)N4c2ccc(Oc3ccc(C)nc3)cc2C)C1 [Example 783, (R)—N-(1-Acryloylpiperidin-3-yl)-5-(2-methyl-4-((6-methylpyridin-3-yl)oxy)phenyl)-4-oxo-4,5-dihydro-3H-1-thia-3,5,8-triazaacenaphthylene-2-carboxamide]
21 | – | 7.4 | C=CC(=O)N1CCC[C@@H](NC(=O)c2sc3nccc4c3c2NC(=O)N4c2ccc(Oc3cccnn3)cc2C)C1 [Example 784, (R)—N-(1-Acryloylpiperidin-3-yl)-5-(2-methyl-4-(pyridazin-3-yloxy)phenyl)-4-oxo-4,5-dihydro-3H-1-thia-3,5,8-triazaacenaphthylene-2-carboxamide]
22 | – | 7.1 | C=CC(=O)N1CCC[C@@H](NC(=O)c2sc3nccc4c3c2NC(=O)N4c2ccc(O[C@H]3CCOC3)cc2C)C1 [Example 785, N—((R)-1-Acryloylpiperidin-3-yl)-5-(2-methyl-4-(((S)-tetrahydrofuran-3-yl)oxy)phenyl)-4-oxo-4,5-dihydro-3H-1-thia-3,5,8-triazaacenaphthylene-2-carboxamide]
23 | – | 6.9 | C=CC(=O)N1CCC[C@@H](NC(=O)c2sc3nccc4c3c2NC(=O)N4c2ccc(Oc3ccc(C)cn3)cc2)C1 [Example 786, (R)—N-(1-Acryloylpiperidin-3-yl)-5-(4-((5-methylpyridin-2-yl)oxy)phenyl)-4-oxo-4,5-dihydro-3H-1-thia-3,5,8-triazaacenaphthylene-2-carboxamide]
24 | – | 6.6 | C=CC(=O)N1CCC[C@@H](NC(=O)c2sc3nccc4c3c2NC(=O)N4c2ccc(O[C@@H]3CCOC3)cc2C)C1 [Example 787, N—((R)-1-Acryloylpiperidin-3-yl)-5-(2-methyl-4-(((R)-tetrahydrofuran-3-yl)oxy)phenyl)-4-oxo-4,5-dihydro-3H-1-thia-3,5,8-triazaacenaphthylene-2-carboxamide]
25 | 200 nM | – | C=CC(=O)N1CCCC(C(=O)Nc2sc3nccc4c3c2NC(=O)N4c2ccc(Oc3ccccc3)cc2C)C1 (centres unmarked) [Example 788, 1-Acryloyl-N-(5-(2-methyl-4-phenoxyphenyl)-4-oxo-4,5-dihydro-3H-1-thia-3,5,8-triazaacenaphthylen-2-yl)piperidine-3-carboxamide]
26 | – | 6.7 | C=CC(=O)N1CC[C@@H](NC(=O)c2sc3nccc4c3c2NC(=O)N4c2ccc(Oc3cccnn3)cc2C)C1 [Example 790, (R)—N-(1-Acryloylpyrrolidin-3-yl)-5-(2-methyl-4-(pyridazin-3-yloxy)phenyl)-4-oxo-4,5-dihydro-3H-1-thia-3,5,8-triazaacenaphthylene-2-carboxamide]
